The values below are quoted from earlier work in patent US8772507B2, “Imidazole-benzamide anti-cancer agents” (Cytokinetics, Inc., priority 2004, dated 2014).

Read-outs that look alike come from different tables or passages of the source.

This data set has as its system A549 cells.

In general, GI50 refers to the concentration that inhibits growth by half. Turning to `CC(=O)O[C@H]1C(=O)[C@@]2(C)[C@H]([C@H](OC(=O)c3ccccc3)[C@]3(O)C[C@H](OC(=O)[C@H](O)[C@@H](NC(=O)c4ccccc4)c4ccccc4)C(C)=C1C3(C)C)[C@]1(OC(C)=O)CO[C@@H]1C[C@@H]2O` [paclitaxel], the GI50 was 4 nM.
Turning to `COc1cccc2c1C(=O)c1c(O)c3c(c(O)c1C2=O)C[C@@](O)(C(=O)CO)C[C@@H]3O[C@H]1C[C@H](N)[C@H](O)[C@H](C)O1` [doxorubicin], the GI50 was 63 nM.
On to `NC(=O)NO` [hydroxyurea], for which the GI50 was 500000 nM.
For `O=c1[nH]cc(F)c(=O)[nH]1` [5-fluorouracil], the GI50 is 1000 nM. For the same compound, under “no unit printed at this place”, the 50% growth inhibitory concentration (GI50) was 1000 nM.
